Experimental data taken from PubChem BioAssay AID1671325.

Target: Mitogen-activated protein kinase 11 (Homo sapiens) (UniProt Q15759)
Assay: PubChem AID 1671325
Details: Z'-LYTE FRET kinase activity, recombinant MAPK11

Sequence of Mitogen-activated protein kinase 11 (Homo sapiens) (Q15759 whole entry, looked up): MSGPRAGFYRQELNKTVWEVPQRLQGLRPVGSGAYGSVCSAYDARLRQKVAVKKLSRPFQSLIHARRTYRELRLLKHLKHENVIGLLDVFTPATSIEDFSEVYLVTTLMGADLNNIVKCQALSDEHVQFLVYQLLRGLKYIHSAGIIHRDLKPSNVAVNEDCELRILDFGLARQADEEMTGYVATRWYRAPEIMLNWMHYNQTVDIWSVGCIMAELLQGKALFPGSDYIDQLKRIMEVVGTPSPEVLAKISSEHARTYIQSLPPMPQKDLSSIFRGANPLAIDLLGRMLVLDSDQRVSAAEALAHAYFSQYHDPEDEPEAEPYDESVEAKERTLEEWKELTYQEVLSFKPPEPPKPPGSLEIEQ

IC50: 3.53 µM
Structure (SMILES): CC(C)(C)n1nc(-c2ccc(Cl)cc2)c2c(N)ncnc21
